We go through two molecules from paper PMC12612973, “Inhibition of Human Amylin Aggregation: In Silico and In Vitro Studies” (ACS Omega, 2025).

Some results are limits rather than exact numbers.

One data set deals with T1, human amylin (hIAPP) (Homo sapiens, UniProt P10997).
T1 construct: purchased Bachem USA
T1 sequence (P10997 34-70 limits assumed): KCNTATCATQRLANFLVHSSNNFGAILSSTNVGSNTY
In words: Thioflavin T (ThT) fluorescence assay of amylin aggregation. It counts as biochemical. The settings on record: for ThT inhibition % (mean ± SEM): compound 10 μM, amylin 15 μM, 36 h incubation, 3 trials; for inhibition at 10 µM: read-out: ThT inhibition % (mean ± SEM), compound 10 μM, amylin 15 μM, 36 h incubation, 3 trials. How it is done:
A stock solution of amylin (1 mM) (purchased from Bachem USA), peptide sequence: […] amide (with disulfide bond between Cys2 and Cys7), was prepared in 100% hexafluoroisopropyl alcohol (HFIP) (purchased from Sigma-Aldrich) and stored at −20 °C. , Aliquots of amylin peptide were filtered through a 0.22 μm filter from the stock solution and freeze-dried. For kinetic experiments, 15 μM of amylin was prepared in 50 mM Tris-HCl buffer (pH 7.4), as investigated in previous studies by Chaari et al., , Samples of amylin were prepared in the presence or absence of inhibitors. Each compound was dissolved in DMSO and further diluted with the buffer used to solubilize the amylin. The final mixture contained 15 μM amylin, 10 μM of the test compound, 2% DMSO or 15 μM amylin, and 2% DMSO without the compound (negative control). Also 15 μM amylin, 10 μM of oleuropein aglycone and 2% DMSO was used as a positive control. The prepared solutions were incubated under physiological conditions (pH 7.4 and 37 °C) for amylin aggregation. Samples were incubated for 36 h to test for amylin aggregation, and measurements were conducted at different time points.
Amylin aggregation was monitored by characteristic changes in Thioflavin T (ThT) fluorescence intensity. A ThT stock solution (15 μM) was prepared in deionized water at pH 7.4. The amylin samples were mixed with the ThT solution and allowed to incubate. ThT fluorescence was measured using the PerkinElmer model LS 55 fluorescence spectrophotometer (PerkinElmer, USA), with an excitation wavelength of 440 nm and an emission wavelength of 480 nm. ,− The emission and excitation slits were set to 5 nm, and a 1 cm cuvette was used for all experiments. Nonspecific background fluorescence was subtracted from the samples using appropriate blanks in the absence of proteins. Each experiment was performed in triplicate.

Another data set deals with Pancreatic INS-1E cells. In words: MTT cytotoxicity assay of amylin aggregates aged with or without inhibitors. The format is cell-based. As to conditions: for effect on INS-1E cell viability in presence of amylin: INS-1E cells cultured with the MTDLs. How it is done:
In this study, we utilized Pancreatic INS-1E cells (Department of Cell Physiology and Metabolism, University Medical Center, Switzerland) due to their close physiological similarity to native β-cells, making them highly relevant to our experimental objectives. Pancreatic INS-1E cells were grown in RPMI 1640 medium, supplemented with 2 mM glutamine, 5% fetal calf serum, 10 mM HEPES (pH 7.4), 1 mM sodium pyruvate, 50 μM 2-mercaptoethanol, 100 units/mL penicillin, and 0.1 mg/mL streptomycin. The culturing environment was maintained at 37 °C, 5% CO2, pH 7.4.
The toxicity of human amylin aggregates in the presence or absence of different compounds in the presence of 2% DMSO was assessed by the 3-(4,5-dimethylthiazol-2-yl)-2,5-diphenyltetrazolium bromide (MTT) reduction assay. The cells were cultured and then seeded into 96-well plates and grown for 24 h prior to exposure to different intermediates of amylin or a mixture of amylin with the MTDLs. The final amylin concentration within the culture medium was 5 μM. Cell viability was expressed as the percentage of MTT reduction, using cells treated with the same buffer volume as a reference (100% MTT reduction). The values (averages ± S.D.) were obtained from three independent experiments.

In general, inhibition refers to the share of the control response that was lost under treatment. Take `CC(C)(C)c1cccc(CNCC(O)CCNCCC(c2ccccc2)c2ccccc2)c1` (stereo not shown) [Compound 22]: at human amylin (hIAPP), the “ThT inhibition % (mean ± SEM)” value is 89.3 ± 0.3% and the inhibition at 10 µM was > 88%. The “cell viability difference versus oleuropein aglycone” value in the data set with Pancreatic INS-1E cells (INS-1E cells 24 h, amylin aggregates aged 36 h with compound) is on record as “around 8 % points”. Also, the “cell viability (MTT reduction)” value with Pancreatic INS-1E cells (INS-1E cells 24 h with amylin aggregates aged 36 h in presence of compound (2.61 μM of compound 22)) was ~93%. Further, in the data set on Pancreatic INS-1E cells, the “effect on INS-1E cell viability in presence of amylin” value is given as “retained cell viability”. In addition, in the data set on Pancreatic INS-1E cells (cytotoxicity assay, discussion statement), the “cell viability higher than that of the control” value is recorded as ~40%.

With `CC(C)(C)c1cccc(CNCC(O)CNCCC(c2ccccc2)c2ccccc2)c1` (stereo not shown) [Compound 18], at human amylin (hIAPP), the “ThT inhibition % (mean ± SEM)” value is reported as 91.5 ± 0.4% and the inhibition at 10 µM is > 88%. Besides, the “cell viability difference versus the sample with amylin fibrils” value in the data set with Pancreatic INS-1E cells (INS-1E cells 24 h, amylin aggregates aged 36 h with 2.92 μM compound 18 or 3.31 μM compound 21) was “approximately 30 % points”. Also, the “effect on INS-1E cell viability in presence of amylin” value in the data set with Pancreatic INS-1E cells is “retained cell viability”.
